Source: ChEMBL document CHEMBL1201862, “PubChem BioAssay data set” (2004)
Calls of active or inactive are those of the source.

Experiments:
Prothrombin = Prothrombin (Homo sapiens, UniProt P00734); experiment: Thrombin 1536 HTS Dose Response Confirmation. [Related pubchem assays: 1046 (Thrombin 1536 HTS; hits were confirmed in this assay)]; format: functional
Large T antigen = Large T antigen (Simian virus 40, UniProt P03070); format: functional, Betapolyomavirus macacae;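 also: Confirmatory-stage PubChem screen for compounds that inhibit SV40 T antigen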
Ephrin type-A receptor 4 = Ephrin type-A receptor 4 (Mus musculus, UniProt Q03137); experiment: inhibitors of EphA4 binding to KYL peptide, primary screen, biochemical, colorimetric, mouse EphA4 (AID 689); format: functional
[1] = biological target: FAD-linked sulfhydryl oxidase ALR (Homo sapiens, UniProt P55789); experiment: inhibitors of human ALR sulfhydryl oxidase, dose response, biochemical, H2O2 detection, luminescence, cherry-pick (AID 493248)
[2] = biological target: Glyceraldehyde-3-phosphate dehydrogenase (Homo sapiens, UniProt P04406)
Cytochrome P450 3A4 [3] = biological target: T1, Cytochrome P450 3A4 (Homo sapiens, UniProt P08684);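 also: CYP3A4 tested as one member of a cytochrome P450 panel screen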
Cytochrome P450 2D6 = Cytochrome P450 2D6 (Homo sapiens, UniProt P10635);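 also: CYP2D6 member of a cytochrome P450 panel assay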
[4] = biological target: Eukaryotic translation initiation factor 4E (Mus musculus, UniProt P63073); experiment: eIF4E–eIF4G protein interaction inhibitors, dose response, biochemical, TR-FRET (AID 855); format: functional;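 also: potency for disrupting eIF4E binding to eIF4GI seen as loss of FRET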
Cytochrome P450 2C19 = Cytochrome P450 2C19 (Homo sapiens, UniProt P33261); experiment: Cytochrome panel assay with activity outcomes. Panel member name: p450-cyp2c19 Compounds with AC50 equal or less than 10 uM are considered active; format: functional
Cytochrome P450 3A4 [5] = biological target: T1, Cytochrome P450 3A4; remark: listed apart in the source
Tumor necrosis factor = Tumor necrosis factor (Homo sapiens, UniProt P01375); experiment: TNFa-triggered NF-kB activation inhibitors, SAR follow-up, cell-based, revised (AID 2337); format: functional
HEK293 = experiment: cells; conditions: Homo sapiens;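 also: cells exposed to compound for 14 hours overnight before viability readout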
Cytochrome P450 2C9 [6] = biological target: T2, Cytochrome P450 2C9 (Homo sapiens, UniProt P11712)
[7] = biological target: T3, Histone-lysine N-methyltransferase NSD2 (Homo sapiens, UniProt O96028); format: biochemical
T3 sequence (O96028 whole entry): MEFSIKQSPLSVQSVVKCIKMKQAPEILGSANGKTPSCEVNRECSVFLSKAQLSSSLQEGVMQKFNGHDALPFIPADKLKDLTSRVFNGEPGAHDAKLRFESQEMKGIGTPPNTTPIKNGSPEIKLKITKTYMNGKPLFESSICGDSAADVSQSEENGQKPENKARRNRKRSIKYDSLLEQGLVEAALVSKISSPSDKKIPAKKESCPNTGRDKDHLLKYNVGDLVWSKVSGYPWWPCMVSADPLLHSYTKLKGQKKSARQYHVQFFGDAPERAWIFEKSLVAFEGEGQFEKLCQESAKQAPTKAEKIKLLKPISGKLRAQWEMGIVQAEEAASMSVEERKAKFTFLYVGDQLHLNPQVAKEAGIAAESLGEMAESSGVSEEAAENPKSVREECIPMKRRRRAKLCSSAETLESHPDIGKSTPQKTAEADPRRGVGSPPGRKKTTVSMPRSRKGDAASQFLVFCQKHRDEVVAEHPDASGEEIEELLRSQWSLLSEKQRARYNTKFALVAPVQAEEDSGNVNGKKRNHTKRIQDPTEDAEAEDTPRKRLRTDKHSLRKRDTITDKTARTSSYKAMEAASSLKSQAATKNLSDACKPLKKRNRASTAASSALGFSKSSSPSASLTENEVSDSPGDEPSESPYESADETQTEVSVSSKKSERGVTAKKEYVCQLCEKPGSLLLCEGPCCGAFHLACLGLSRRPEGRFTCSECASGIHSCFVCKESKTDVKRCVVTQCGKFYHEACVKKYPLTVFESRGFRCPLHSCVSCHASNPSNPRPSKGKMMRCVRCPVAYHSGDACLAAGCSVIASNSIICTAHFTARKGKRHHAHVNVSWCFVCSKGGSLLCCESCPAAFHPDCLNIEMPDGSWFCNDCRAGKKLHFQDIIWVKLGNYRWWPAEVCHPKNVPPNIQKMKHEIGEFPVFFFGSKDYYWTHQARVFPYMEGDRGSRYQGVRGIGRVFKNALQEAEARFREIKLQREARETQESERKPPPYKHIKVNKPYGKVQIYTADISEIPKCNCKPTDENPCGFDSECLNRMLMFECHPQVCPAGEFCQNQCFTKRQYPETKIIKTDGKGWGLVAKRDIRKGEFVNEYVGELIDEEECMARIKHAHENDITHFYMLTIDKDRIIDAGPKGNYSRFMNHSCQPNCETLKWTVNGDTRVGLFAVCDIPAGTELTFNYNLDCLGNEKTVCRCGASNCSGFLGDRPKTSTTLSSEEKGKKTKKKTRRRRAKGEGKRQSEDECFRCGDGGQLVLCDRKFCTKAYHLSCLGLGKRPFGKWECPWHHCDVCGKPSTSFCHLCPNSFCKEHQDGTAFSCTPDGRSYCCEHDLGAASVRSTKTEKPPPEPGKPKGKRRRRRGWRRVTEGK

Estrogen receptor beta [8] = biological target: T4, Estrogen receptor beta (Homo sapiens, UniProt Q92731);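 also: recombinant ER-beta bound to coactivator SRC1 peptide in presence of estradiol agonist; inhibitors block coactivator peptide binding and lower the FRET signal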
Estrogen receptor beta [9] = biological target: T4, Estrogen receptor beta; experiment: ERβ–SRC-3 coactivator interaction inhibitors, confirmation, orthogonal assay, biochemical, ELISA, streptavidin-HRP readout (AID 1060)
Cytochrome P450 2C9 [10] = biological target: T2, Cytochrome P450 2C9; remark: listed apart in the source
[11] = biological target: T5, DNA repair and recombination protein RAD54-like (Homo sapiens, UniProt Q92698); experiment: inhibitors of human RAD54 branch migration, confirmation, biochemical, fluorescence, cherry-picked samples, dose series (AID 651657); format: functional
T5 sequence (Q92698 whole entry): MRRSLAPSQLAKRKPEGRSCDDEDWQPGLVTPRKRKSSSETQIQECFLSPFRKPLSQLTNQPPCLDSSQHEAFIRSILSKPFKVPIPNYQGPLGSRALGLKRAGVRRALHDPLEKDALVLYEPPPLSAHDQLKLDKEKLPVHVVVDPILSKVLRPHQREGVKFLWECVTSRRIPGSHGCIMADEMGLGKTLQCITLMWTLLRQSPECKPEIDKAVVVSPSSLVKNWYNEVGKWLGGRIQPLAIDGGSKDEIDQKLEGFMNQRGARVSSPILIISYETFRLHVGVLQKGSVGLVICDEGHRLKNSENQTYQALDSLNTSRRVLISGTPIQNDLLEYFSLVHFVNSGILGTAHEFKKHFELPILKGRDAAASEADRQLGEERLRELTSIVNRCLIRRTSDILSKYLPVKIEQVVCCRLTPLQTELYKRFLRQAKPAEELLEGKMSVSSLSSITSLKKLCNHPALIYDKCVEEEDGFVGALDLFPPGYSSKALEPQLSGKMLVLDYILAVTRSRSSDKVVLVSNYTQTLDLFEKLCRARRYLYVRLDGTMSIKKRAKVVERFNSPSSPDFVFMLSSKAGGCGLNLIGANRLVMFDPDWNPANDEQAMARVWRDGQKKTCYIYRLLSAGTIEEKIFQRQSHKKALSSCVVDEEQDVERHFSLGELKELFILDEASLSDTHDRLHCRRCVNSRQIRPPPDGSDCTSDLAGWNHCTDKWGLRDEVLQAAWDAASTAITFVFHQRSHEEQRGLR

[12] = biological target: T6, DNA repair protein RAD52 homolog (Homo sapiens, UniProt P43351); format: functional, biochemical
T6 sequence (P43351 whole entry): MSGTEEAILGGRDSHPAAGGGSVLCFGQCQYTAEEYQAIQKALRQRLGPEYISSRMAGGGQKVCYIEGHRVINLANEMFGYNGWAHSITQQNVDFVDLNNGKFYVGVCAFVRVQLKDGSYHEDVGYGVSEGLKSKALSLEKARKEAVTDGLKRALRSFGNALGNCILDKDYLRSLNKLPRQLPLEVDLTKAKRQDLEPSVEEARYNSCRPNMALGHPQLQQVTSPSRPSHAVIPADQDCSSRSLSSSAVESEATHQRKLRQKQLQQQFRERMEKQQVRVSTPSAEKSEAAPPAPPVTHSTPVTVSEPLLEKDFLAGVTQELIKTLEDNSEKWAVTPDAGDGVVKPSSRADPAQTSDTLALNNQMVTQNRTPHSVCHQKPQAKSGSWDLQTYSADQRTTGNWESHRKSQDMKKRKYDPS

Cytochrome P450 1A2 = biological target: T7, Cytochrome P450 1A2 (Homo sapiens, UniProt P05177);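 also: PubChem cytochrome P450 panel assay, CYP1A2 panel member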
T7 sequence (P05177 whole entry): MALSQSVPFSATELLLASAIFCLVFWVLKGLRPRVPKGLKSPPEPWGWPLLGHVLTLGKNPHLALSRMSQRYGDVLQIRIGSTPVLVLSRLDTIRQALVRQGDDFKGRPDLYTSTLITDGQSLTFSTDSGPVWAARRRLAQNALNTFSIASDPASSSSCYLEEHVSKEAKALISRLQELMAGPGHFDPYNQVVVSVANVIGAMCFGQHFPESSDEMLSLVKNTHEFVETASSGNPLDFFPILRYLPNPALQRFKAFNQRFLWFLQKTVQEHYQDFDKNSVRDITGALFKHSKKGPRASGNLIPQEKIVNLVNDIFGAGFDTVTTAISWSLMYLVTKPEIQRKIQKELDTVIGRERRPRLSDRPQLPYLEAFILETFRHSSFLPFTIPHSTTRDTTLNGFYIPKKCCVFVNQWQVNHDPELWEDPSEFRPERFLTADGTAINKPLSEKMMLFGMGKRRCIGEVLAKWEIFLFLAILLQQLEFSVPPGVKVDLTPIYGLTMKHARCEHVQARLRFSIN

[13] = inhibitors of firefly luciferase expression or activity, dose response, H4 neuroglioma cells, luminescence (AID 1990); format: functional, cell-based
[14] = Luminescence Cell-Based Dose Response HTS to Identify Inhibitors of 5'UTR Stem-Loop Driven Prion Protein mRNA Translation in H4 Neuroglioblastoma Cells. [Related pubchem assays: 1827 (Project Summary), 1813 (Primary HTS)]; format: functional
[15] = inhibitors of SNCA 5'UTR-driven reporter translation, confirmation, H4 neuroglioma cells, luminescence (AID 1988); format: functional, cell-based
[16] = inhibitors of intracellular T. cruzi replication, confirmation, NIH3T3 host cells, beta-gal luminescence (AID 2044); format: functional, cell-based;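 also: intracellular parasites grown in NIH/3T3 mouse fibroblasts as host cells; luminescent beta-galactosidase reporter signal from transgenic T. cruzi replicating inside host cells; inhibitors lower the luminescence signal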
[17] = cytotoxicity toward NIH3T3 fibroblasts, dose response, counter-screen, cell-based, ATP luminescence, mouse fibroblasts (AID 2010); format: functional; conditions: NIH3T3;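 also: cells exposed to compound for about 90 hours before reading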

Chain of Cytochrome P450 2D6 (P10635 whole entry): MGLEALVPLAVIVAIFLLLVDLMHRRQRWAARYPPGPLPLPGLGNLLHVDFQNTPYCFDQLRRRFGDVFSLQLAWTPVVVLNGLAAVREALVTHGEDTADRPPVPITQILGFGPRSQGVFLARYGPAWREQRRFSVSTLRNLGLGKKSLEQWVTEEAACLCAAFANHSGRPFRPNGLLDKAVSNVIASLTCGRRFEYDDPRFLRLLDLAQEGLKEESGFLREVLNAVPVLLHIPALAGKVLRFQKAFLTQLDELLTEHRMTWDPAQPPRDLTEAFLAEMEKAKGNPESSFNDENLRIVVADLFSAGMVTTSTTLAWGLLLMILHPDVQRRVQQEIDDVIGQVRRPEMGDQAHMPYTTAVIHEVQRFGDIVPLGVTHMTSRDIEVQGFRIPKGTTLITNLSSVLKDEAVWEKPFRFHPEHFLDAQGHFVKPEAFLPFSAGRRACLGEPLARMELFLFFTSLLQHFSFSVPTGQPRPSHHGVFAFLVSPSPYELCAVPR
T1 sequence (P08684 whole entry): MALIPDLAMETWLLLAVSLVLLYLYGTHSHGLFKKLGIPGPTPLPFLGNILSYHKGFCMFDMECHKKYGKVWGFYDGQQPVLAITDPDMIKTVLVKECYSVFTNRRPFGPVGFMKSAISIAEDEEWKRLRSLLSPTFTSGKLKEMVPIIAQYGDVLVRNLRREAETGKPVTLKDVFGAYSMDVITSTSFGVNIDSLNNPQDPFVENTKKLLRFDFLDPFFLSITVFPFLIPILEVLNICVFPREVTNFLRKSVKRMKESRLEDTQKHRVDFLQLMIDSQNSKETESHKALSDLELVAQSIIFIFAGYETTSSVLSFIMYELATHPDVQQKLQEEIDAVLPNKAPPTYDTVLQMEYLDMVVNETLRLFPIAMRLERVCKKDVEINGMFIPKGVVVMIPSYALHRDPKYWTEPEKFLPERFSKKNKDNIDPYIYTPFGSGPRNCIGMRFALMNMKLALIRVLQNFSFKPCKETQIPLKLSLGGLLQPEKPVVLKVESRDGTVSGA
Chain of Cytochrome P450 2C19 (P33261 whole entry): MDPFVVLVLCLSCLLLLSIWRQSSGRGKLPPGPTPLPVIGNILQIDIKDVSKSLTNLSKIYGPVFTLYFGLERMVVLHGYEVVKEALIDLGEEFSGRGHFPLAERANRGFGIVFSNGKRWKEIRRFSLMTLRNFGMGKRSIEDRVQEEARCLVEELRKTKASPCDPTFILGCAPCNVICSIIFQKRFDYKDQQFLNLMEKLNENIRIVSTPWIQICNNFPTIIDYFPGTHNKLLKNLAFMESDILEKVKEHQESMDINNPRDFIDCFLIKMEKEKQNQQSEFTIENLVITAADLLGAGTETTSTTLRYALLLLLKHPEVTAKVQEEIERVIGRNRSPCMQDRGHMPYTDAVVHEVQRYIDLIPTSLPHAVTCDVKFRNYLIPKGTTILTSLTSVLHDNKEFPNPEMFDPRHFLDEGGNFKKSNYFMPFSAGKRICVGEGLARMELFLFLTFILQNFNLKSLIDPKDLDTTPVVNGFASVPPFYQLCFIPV
T2 sequence (P11712 whole entry): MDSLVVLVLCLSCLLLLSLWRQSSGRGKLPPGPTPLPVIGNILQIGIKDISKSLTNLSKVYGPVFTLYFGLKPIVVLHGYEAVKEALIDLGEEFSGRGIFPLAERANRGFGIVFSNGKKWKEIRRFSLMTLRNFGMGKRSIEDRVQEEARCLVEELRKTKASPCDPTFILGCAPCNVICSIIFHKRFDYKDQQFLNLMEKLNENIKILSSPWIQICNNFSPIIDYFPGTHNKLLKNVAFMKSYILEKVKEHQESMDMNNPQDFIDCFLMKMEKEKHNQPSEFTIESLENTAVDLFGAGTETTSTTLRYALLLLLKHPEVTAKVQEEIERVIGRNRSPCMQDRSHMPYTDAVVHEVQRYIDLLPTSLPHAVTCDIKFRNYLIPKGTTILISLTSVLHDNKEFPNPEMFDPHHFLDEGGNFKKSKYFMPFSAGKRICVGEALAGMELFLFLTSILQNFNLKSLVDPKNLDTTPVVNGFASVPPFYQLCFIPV
Chain of Eukaryotic translation initiation factor 4E (P63073 whole entry): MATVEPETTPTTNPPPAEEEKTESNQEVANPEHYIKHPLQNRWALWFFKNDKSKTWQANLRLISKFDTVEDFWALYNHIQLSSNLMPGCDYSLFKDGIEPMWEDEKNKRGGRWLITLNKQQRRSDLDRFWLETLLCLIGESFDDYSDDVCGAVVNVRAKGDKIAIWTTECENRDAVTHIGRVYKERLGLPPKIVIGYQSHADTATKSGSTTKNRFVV
T4 sequence (Q92731 whole entry): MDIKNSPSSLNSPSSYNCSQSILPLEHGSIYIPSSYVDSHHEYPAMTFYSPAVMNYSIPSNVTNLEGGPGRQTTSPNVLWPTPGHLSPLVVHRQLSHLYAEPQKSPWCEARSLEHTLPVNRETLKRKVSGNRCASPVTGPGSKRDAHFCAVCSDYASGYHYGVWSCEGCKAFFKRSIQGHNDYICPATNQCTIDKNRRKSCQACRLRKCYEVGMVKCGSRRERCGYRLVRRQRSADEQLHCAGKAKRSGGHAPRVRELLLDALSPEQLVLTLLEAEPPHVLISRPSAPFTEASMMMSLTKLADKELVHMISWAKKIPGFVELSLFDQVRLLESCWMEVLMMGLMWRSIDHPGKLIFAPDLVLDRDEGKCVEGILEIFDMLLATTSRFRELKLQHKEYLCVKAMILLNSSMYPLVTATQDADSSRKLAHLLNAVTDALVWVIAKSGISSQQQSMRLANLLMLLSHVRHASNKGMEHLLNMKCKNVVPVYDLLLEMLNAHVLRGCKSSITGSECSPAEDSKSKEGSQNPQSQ
Chain of Ephrin type-A receptor 4 (Q03137 whole entry): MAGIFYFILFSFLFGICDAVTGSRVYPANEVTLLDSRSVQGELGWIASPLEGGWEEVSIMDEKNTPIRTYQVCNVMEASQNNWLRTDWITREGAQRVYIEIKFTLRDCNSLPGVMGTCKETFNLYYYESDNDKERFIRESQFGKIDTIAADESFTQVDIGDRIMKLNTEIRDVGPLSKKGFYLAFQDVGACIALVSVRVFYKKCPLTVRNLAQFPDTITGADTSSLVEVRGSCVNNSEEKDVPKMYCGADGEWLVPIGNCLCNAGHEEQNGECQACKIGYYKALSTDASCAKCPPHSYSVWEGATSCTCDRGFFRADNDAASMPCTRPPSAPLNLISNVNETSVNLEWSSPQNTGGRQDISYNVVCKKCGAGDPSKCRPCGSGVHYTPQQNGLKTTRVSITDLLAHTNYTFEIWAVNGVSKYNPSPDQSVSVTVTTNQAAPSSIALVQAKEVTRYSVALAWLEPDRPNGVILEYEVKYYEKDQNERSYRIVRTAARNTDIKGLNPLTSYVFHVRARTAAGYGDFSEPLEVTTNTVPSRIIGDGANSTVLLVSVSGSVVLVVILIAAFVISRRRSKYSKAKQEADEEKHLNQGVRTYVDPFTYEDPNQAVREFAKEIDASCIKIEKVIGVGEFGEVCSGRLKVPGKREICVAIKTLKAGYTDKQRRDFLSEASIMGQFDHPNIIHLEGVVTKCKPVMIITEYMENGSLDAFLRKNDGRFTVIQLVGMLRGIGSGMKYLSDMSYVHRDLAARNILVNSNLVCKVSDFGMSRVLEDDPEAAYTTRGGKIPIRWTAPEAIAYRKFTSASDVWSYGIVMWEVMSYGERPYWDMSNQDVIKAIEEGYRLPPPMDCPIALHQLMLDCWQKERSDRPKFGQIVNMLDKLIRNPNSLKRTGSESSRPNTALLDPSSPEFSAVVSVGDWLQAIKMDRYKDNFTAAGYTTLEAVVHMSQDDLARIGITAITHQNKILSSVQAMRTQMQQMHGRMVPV
Chain of FAD-linked sulfhydryl oxidase ALR (P55789 whole entry): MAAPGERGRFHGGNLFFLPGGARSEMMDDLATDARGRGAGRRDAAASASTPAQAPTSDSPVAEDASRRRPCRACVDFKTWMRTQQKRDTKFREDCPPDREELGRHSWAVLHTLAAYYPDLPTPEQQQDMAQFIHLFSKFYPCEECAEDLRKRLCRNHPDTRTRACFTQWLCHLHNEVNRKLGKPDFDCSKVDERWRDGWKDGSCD
Chain of Tumor necrosis factor (P01375 whole entry): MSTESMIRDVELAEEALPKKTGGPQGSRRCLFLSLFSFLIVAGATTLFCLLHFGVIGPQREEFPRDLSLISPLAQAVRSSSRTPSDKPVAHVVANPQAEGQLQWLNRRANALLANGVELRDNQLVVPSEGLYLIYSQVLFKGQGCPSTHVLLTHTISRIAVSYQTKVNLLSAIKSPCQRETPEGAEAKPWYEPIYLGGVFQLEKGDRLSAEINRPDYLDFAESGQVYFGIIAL
Chain of Glyceraldehyde-3-phosphate dehydrogenase (P04406 whole entry): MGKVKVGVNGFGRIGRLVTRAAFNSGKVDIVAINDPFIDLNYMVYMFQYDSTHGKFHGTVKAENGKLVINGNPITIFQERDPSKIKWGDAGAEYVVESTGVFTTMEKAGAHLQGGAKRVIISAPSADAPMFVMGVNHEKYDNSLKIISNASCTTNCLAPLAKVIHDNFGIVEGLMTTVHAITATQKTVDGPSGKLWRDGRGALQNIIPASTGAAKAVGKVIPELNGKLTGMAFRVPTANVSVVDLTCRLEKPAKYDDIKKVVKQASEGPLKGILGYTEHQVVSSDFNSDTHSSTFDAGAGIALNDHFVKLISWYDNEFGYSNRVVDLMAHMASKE

CCSc1nnc(NC(=O)c2ccco2)s1
IC50 (Prothrombin): > 50 µM (not active)

CC(=O)N(c1ccc2oc(=O)sc2c1)S(=O)(=O)c1ccccc1
IC50 (Large T antigen): 30.3 µM (active)
IC50 (Ephrin type-A receptor 4): > 100 µM (not active)

CCN(CCCNC(=O)CN(C)S(=O)(=O)c1cccc2nsnc12)c1cccc(C)c1
IC50 (Ephrin type-A receptor 4): > 100 µM (not active)
AC50 [1]: 3.31 µM (active)

O=C(CSc1nnc(Cn2nnc(-c3ccccc3)n2)n1-c1ccccc1)Nc1ccc(F)cc1
IC50 (Prothrombin): > 50 µM (not active)

NS(=O)(=O)c1ccc(CCNC(=O)Cc2cccs2)cc1
IC50 [2]: > 100 µM (not active)

CCN1C(=O)[C@H]2[C@H]3[C@H](O)[C@H](O)C/C(=N/OC[C@@H](C)[C@H](OCc4ccccc4)C(C)C)[C@@H]3CC[C@@H]2C1=O
AC50 (Cytochrome P450 3A4 [3]): 3.98 µM (inconclusive)
AC50 (Cytochrome P450 2D6): inconclusive

CCc1nnc(NC(=O)Cc2ccc(OCc3c(C)noc3C)cc2)s1
IC50 [4]: > 64 µM (inactive)

N#Cc1cccc(NC(=O)N2CCC3(CC2)CCN(C(=O)c2ccco2)CC3)c1
AC50 (Cytochrome P450 2C19; read-out: AC50): 20 µM (inconclusive)
AC50 (Cytochrome P450 3A4 [5]): inconclusive

CCC(=O)N1CCc2cc(S(=O)(=O)N3CCN(c4ccc([N+](=O)[O-])cc4)CC3)ccc21
IC50 (Tumor necrosis factor): > 20 µM (inactive)
IC50 (HEK293): > 20 µM (inactive)

O=C(NCc1ccccc1)c1nc(-c2cccs2)no1
IC50 (Prothrombin): > 50 µM (not active)

O=C(O)[C@H]1CCN1
AC50 (Cytochrome P450 3A4 [5]): inconclusive
AC50 (Cytochrome P450 2C9 [6]): inconclusive

Nc1nc(Cl)cc(NCCO)n1
AC50 (Cytochrome P450 2C19): inconclusive
AC50 (Cytochrome P450 2D6): inconclusive

CCN(CC)CCCN(Cc1cc2ccc(C)c(C)c2nc1O)C(=O)NC1CCCCC1
AC50 (Cytochrome P450 2C19; read-out: AC50): 39.8 µM (inconclusive)
AC50 [7]: > 20 µM (inactive)

COc1cccc2cc3c(=O)n(-c4ccccc4)nc-3oc12
IC50 (Estrogen receptor beta [8]): 15.7 µM (active)
IC50 (Estrogen receptor beta [9]): > 50 µM (not active)

COc1ccc(-c2nn3cnnc3s2)cc1OC
IC50 (Prothrombin): > 50 µM (not active)
AC50 (Cytochrome P450 2C9 [10]): 1.41 µM (inconclusive)

CN(C)CCNc1nc2c(c(=O)n(C)c(=O)n2C)n1C
AC50 (Cytochrome P450 2D6): inconclusive

CCOC(=O)c1cnc2c(C)cc(C)cc2c1NCCCN1CCOCC1
AC50 [11]: 5.48 µM (active)
AC50 [12]: 11.4 µM (active)

Cc1ccc2nc3c(cc(C(=O)NCCN4CCOCC4)c(=N)n3CCCN3CCOCC3)c(=O)n2c1
AC50 [11]: 29.5 µM (active)

Cc1cc2c(cc1C)-c1nnc(-c3ccc4ccccc4n3)n1C(C)(C)C2
AC50 (Cytochrome P450 1A2): 5.01 µM (inconclusive)
AC50 (Cytochrome P450 3A4 [5]): inconclusive
AC50 (Cytochrome P450 2C9 [6]): inconclusive

Cn1nccc1-c1cc(Cl)cc(Cl)c1O
IC50 (Prothrombin): > 50 µM (not active)

COc1ccc(-c2c(C)nn3c(N)c(C#N)cnc23)cc1OC
EC50 [13]: 50.1 µM (active)
EC50 [14]: > 120 µM (not active)
EC50 [15]: > 120 µM (not active)
IC50 [4]: 50 µM (inactive)

CNC(=S)NNC(=O)COc1ccccc1C
AC50 (Cytochrome P450 2D6): inconclusive

COC(=O)N1CCC2(CC1)CCN(C(c1ccccc1)c1ccccc1)CC2
AC50 (Cytochrome P450 2C9 [10]): 39.8 µM (inconclusive)
AC50 (Cytochrome P450 3A4 [5]): inconclusive

CC(C)COc1ccc(C(=O)Nc2scc(-c3ccc(Cl)cc3Cl)c2C(N)=O)cc1
EC50 [16]: 1.76 µM (active)
EC50 [17]: > 60 µM (not active)
AC50 (Cytochrome P450 3A4 [5]): inconclusive
